Experimental data: the CheMixHub viscosity set

Experiment: xn = mol fraction of the nth substance listed

CCCC(C)O (configuration not stated) + Cc1ccccc1
viscosity [mPa·s], 101 kPa
Conditions | x1 = 0.1002 | x1 = 0.1998 | x1 = 0.2999 | x1 = 0.3994 | x1 = 0.5004 | x1 = 0.6006 | x1 = 0.6993 | x1 = 0.8004 | x1 = 0.8998
303.15 K | 0.5378 | 0.5727 | 0.629 | 0.6912 | 0.7892 | 0.9188 | 1.129 | 1.428 | 1.926
308.15 K | 0.5072 | 0.5384 | 0.5879 | 0.6416 | 0.7284 | 0.836 | 1.012 | 1.259 | 1.656
313.15 K | 0.4802 | 0.5063 | 0.5503 | 0.5965 | 0.6696 | 0.7628 | 0.9099 | 1.114 | 1.435
318.15 K | 0.4548 | 0.4776 | 0.517 | 0.5583 | 0.6236 | 0.7009 | 0.8268 | 0.9944 | 1.26
323.15 K | 0.4322 | 0.4524 | 0.4862 | 0.5226 | 0.5786 | 0.6466 | 0.7539 | 0.8904 | 1.11

CC(=O)OC(C)C + Cc1ccccc1C
viscosity [mPa·s], 101 kPa
Conditions | x1 = 0.1037 | x1 = 0.2009 | x1 = 0.3016 | x1 = 0.4027 | x1 = 0.5048 | x1 = 0.6019 | x1 = 0.7013 | x1 = 0.8041 | x1 = 0.9437
303.15 K | 0.669 | 0.645 | 0.62 | 0.595 | 0.571 | 0.55 | 0.527 | 0.504 | 0.472
313.15 K | 0.596 | 0.573 | 0.552 | 0.53 | 0.509 | 0.489 | 0.47 | 0.45 | 0.424

CC(=O)OCC(C)C + Cc1ccccc1C
viscosity [mPa·s], 101 kPa
Conditions | x1 = 0.0918 | x1 = 0.1798 | x1 = 0.2716 | x1 = 0.3504 | x1 = 0.4528 | x1 = 0.5735 | x1 = 0.6718 | x1 = 0.7786 | x1 = 0.8691 | x1 = 0.9514
303.15 K | 0.694 | 0.688 | 0.681 | 0.675 | 0.667 | 0.659 | 0.653 | 0.648 | 0.644 | 0.641
313.15 K | 0.613 | 0.606 | 0.6 | 0.595 | 0.59 | 0.585 | 0.582 | 0.58 | 0.578 | 0.58

CCCC(=O)O + Cc1ccccc1N
viscosity [mPa·s], 100 kPa
Conditions | x2 = 0.0971 | x2 = 0.1896 | x2 = 0.2605 | x2 = 0.3617 | x2 = 0.4825 | x2 = 0.5911 | x2 = 0.6776 | x2 = 0.7516 | x2 = 0.8641
303.15 K | 1.59 | 1.78 | 1.92 | 2.12 | 2.35 | 2.55 | 2.71 | 2.84 | 3.03
308.15 K | 1.42 | 1.58 | 1.7 | 1.87 | 2.07 | 2.24 | 2.37 | 2.48 | 2.64
313.15 K | 1.26 | 1.4 | 1.51 | 1.66 | 1.83 | 1.98 | 2.1 | 2.19 | 2.33
318.15 K | 1.1 | 1.23 | 1.32 | 1.45 | 1.6 | 1.73 | 1.83 | 1.91 | 2.02

CCCC(=O)O + ClC(Cl)(Cl)Cl
298.15 K, 101 kPa
Conditions | viscosity [mPa·s]
x1 = 0.08 | 0.911
x1 = 0.16 | 0.925
x1 = 0.24 | 0.945
x1 = 0.3 | 0.966
x1 = 0.54 | 1.079
x1 = 0.64 | 1.142
x1 = 0.72 | 1.201
x1 = 0.87 | 1.331

CCCCBr + ClC(Cl)(Cl)Cl
101 kPa
Conditions | viscosity [mPa·s]
295.95 K, x1 = 0.0935 | 0.874
295.95 K, x1 = 0.1213 | 0.8589
295.95 K, x1 = 0.171 | 0.8365
295.95 K, x1 = 0.2166 | 0.8163
295.95 K, x1 = 0.3376 | 0.7686
295.95 K, x1 = 0.5094 | 0.7155
295.95 K, x1 = 0.6766 | 0.6738
303.45 K, x1 = 0.0948 | 0.7853
303.45 K, x1 = 0.1316 | 0.7681
303.45 K, x1 = 0.1914 | 0.7427
303.45 K, x1 = 0.3229 | 0.698
303.45 K, x1 = 0.4875 | 0.6544
303.45 K, x1 = 0.7961 | 0.5884
313.25 K, x1 = 0.127 | 0.6844
313.25 K, x1 = 0.2061 | 0.6557
313.25 K, x1 = 0.2967 | 0.6297
313.25 K, x1 = 0.4576 | 0.5922
313.25 K, x1 = 0.6279 | 0.5598
313.25 K, x1 = 0.761 | 0.5382
313.25 K, x1 = 0.7961 | 0.5329

CCCCCCCBr + ClC(Cl)(Cl)Cl
viscosity [mPa·s], 101 kPa
Conditions | 293.15 K | 303.15 K | 313.15 K | 323.15 K
x1 = 0.123 | 1.015 | 0.878 | 0.769 | 0.677
x1 = 0.259 | 1.045 | 0.905 | 0.797 | 0.705
x1 = 0.412 | 1.09 | 0.945 | 0.832 | 0.738
x1 = 0.584 | 1.13 | 0.982 | 0.865 | 0.767

CCCCNCCCC + ClC(Cl)(Cl)Cl
298.15 K, 101.3 kPa
Conditions | viscosity [mPa·s]
x1 = 0.0922 | 0.898
x1 = 0.173 | 0.894
x1 = 0.3108 | 0.887
x1 = 0.4089 | 0.881
x1 = 0.5011 | 0.877
x1 = 0.5964 | 0.872
x1 = 0.7077 | 0.864
x1 = 0.7916 | 0.848
x1 = 0.9034 | 0.823
